{"source": "PubChem BioAssay AID1259411", "about": "(Chemical Carcinogenesis Research Information System (CCRIS), 2018)", "test_system": "rodent carcinogenicity bioassays, tumor incidence", "test": "CCRIS carcinogenicity studies", "settings": "Dose: 0", "procedure,_shortened": "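NCI-built, expert-reviewed records of carcinogenicity and related test outcomes (mutagenicity, tumor promotion/inhibition) compiled from published and report sources, historical span 1985-2011, not updated.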", "note": "Active and inactive are the calls of the source. No rule for the calls is given here."}
{"compound": "CCC1(c2ccccc2)C(=O)NC(=O)NC1=O", "values": [{"measurement": "carcinogen call", "setting": "Species: MOUSE, Strain/Sex: 6HF1/MALE, Route: ORAL, 0.05% IN BASAL DIET FOR 104 WK (STUDY DURATION: 104 WK), Tumor Site: Type of Lesion: LIVER: TUMOR", "result": "active; positive"}]}
{"compound": "C[C@@]12CCC[C@H]1[C@@H]1CCc3cc(O)ccc3[C@H]1CC2", "values": [{"measurement": "carcinogen call", "setting": "Species: HAMSTER, Strain/Sex: SYRIAN/MALE, Route: SUBCUTANEOUS IMPLANT, 20 MG IN PELLETS IMPLANTED EVERY 2.5 MO FOR 9 MO (STUDY DURATION: 9 MO)", "result": "inactive; negative"}]}
{"compound": "O=[N+]([O-])c1ccc2ccc3c(O)ccc4ccc1c2c43", "values": [{"measurement": "carcinogen call", "setting": "Species: MOUSE, Strain/Sex: B6C3F1/FEMALE, Route: INTRAPERITONEAL, 7 NMOL (TOTAL DOSE), 1/7, 2/7 AND 4/7 OF THE TOTAL DOSE ADMINISTERED WITHIN 24 HR OF BIRTH AND AT 8 AND 15 D OF AGE", "result": "inactive; negative"}, {"measurement": "carcinogen call", "setting": "Species: MOUSE, Strain/Sex: B6C3F1/MALE, Route: INTRAPERITONEAL, 7 NMOL (TOTAL DOSE), 1/7, 2/7 AND 4/7 OF THE TOTAL DOSE ADMINISTERED WITHIN 24 HR OF BIRTH AND AT 8 AND 15 D OF AGE", "result": "inactive; negative"}]}
{"compound": "Oc1ccc2ccc3c4ccc5ccccc5c4c4c(c3c2c1O)O4", "values": [{"measurement": "carcinogen call", "setting": "Species: MOUSE, Strain/Sex: ICR/FEMALE, Route: INTRAPERITONEAL, 25 NMOL (TOTAL DOSE) ADMINISTERED IN DOSES OF 1/7, 2/7, AND 4/7 ON DAYS 1, 7, AND 15 OF LIFE, RESPECTIVELY (STUDY DUR, Tumor Site: Type of Lesion: LUNG: TUMOR", "result": "active; positive"}, {"measurement": "carcinogen call", "setting": "Species: MOUSE, Strain/Sex: ICR/FEMALE, Route: INTRAPERITONEAL, 25 NMOL TOTAL DOSE INJECTED IN DOSES OF 1/7 ON DAY 1, 2/7 ON DAY 8, AND 4/7 ON DAY 15 OF LIFE (STUDY DURATION: 35 WK), Tumor Site: Type of Lesion: LIVER: TUMOR, LUNG: TUMOR", "result": "active; positive"}, {"measurement": "carcinogen call", "setting": "Species: MOUSE, Strain/Sex: ICR/MALE, Route: INTRAPERITONEAL, 25 NMOL (TOTAL DOSE) ADMINISTERED IN DOSES OF 1/7, 2/7, AND 4/7 ON DAYS 1, 7, AND 15 OF LIFE, RESPECTIVELY (STUDY DUR, Tumor Site: Type of Lesion: LUNG: TUMOR, LIVER: TUMOR", "result": "active; positive"}, {"measurement": "carcinogen call", "setting": "Species: MOUSE, Strain/Sex: ICR/MALE, Route: INTRAPERITONEAL, 25 NMOL TOTAL DOSE INJECTED IN DOSES OF 1/7 ON DAY 1, 2.7 ON DAY 8, AND 4/7 ON DAY 15 OF LIFE (STUDY DURATION: 35 WK), Tumor Site: Type of Lesion: LUNG:TUMOR, LIVER: TUMOR", "result": "active; positive"}, {"measurement": "carcinogen call", "setting": "Species: RAT, Strain/Sex: CD-1/FEMALE, Route: INJECTION, 0.2 UMOL IN 0.1 ML DMSO INJECTED BENEATH EACH OF THE 6 NIPPLES ON THE LEFT SIDE (STUDY DURATION: 41 WK), Tumor Site: Type of Lesion: MAMMARY GLAND: TUMOR", "result": "active; positive"}, {"measurement": "carcinogen call", "setting": "Species: RAT, Strain/Sex: STRAIN-CD/FEMALE, Route: INJECTION, 0.2 UMOL IN 0.1 ML DMSO INJECTED UNDER EACH OF THE 3 LEFT THORACIC NIPPLES FOLLOWED THE NEXT DAY BY SIMILAR TREATMENT, Tumor Site: Type of Lesion: MAMMARY GLAND: TUMOR", "result": "active; positive"}]}
{"compound": "O=NN1CCN(N=O)CC1", "values": [{"measurement": "carcinogen call", "setting": "Species: RAT, Strain/Sex: F344/FEMALE, Route: INTRAVESICAL, 374 MG (TOTAL DOSE) INJECTED INTO BLADDER 2/WK OVER 36 WK (STUDY DURATION: 102 WK), Tumor Site: Type of Lesion: NASAL CAVITY: TUMOR", "result": "active; positive"}]}
{"compound": "O=C(O)[C@@H](O)[C@@H](O)[C@H](O)[C@@H](O)C(=O)[O-].O=C(O)[C@@H](O)[C@@H](O)[C@H](O)[C@@H](O)C(=O)[O-].O=C(O)[C@@H](O)[C@@H](O)[C@H](O)[C@@H](O)C(=O)[O-].[Fe+3]", "values": [{"measurement": "carcinogen call", "setting": "Species: RAT, Strain/Sex: WISTAR/MALE, Route: INTRAPERITONEAL, 5 MG/KG IN GLUCOSE SOLUTION 1/D 6 D/WK FOR 3 MO (STUDY DURATION: 1 YR, 3 MO), Tumor Site: Type of Lesion: PERITONEAL CAVITY: MESOTHELIOMA", "result": "active; positive"}]}
{"compound": "ClCC(Cl)Cl", "values": [{"measurement": "carcinogen call", "setting": "Species: MOUSE, Strain/Sex: B6C3F1/FEMALE, Route: GAVAGE, 195, 390 MG/KG/D, TWA, 195, 390 MG/KG/D, TWA, Tumor Site: Type of Lesion: LIVER: HEPATOCELLULAR CARCINOMA", "result": "active; positive"}, {"measurement": "carcinogen call", "setting": "Species: MOUSE, Strain/Sex: B6C3F1/MALE, Route: GAVAGE, 195, 390 MG/KG/D, TWA, 195, 390 MG/KG/D, TWA, Tumor Site: Type of Lesion: LIVER: HEPATOCELLULAR CARCINOMA", "result": "active; positive"}, {"measurement": "carcinogen call", "setting": "Species: RAT, Strain/Sex: OSBORNE-MENDEL/FEMALE, Route: GAVAGE, 46, 92 MG/KG/D, TWA, 46, 92 MG/KG/D, TWA", "result": "inactive; negative"}, {"measurement": "carcinogen call", "setting": "Species: RAT, Strain/Sex: OSBORNE-MENDEL/MALE, Route: GAVAGE, 46, 92 MG/KG/D, TWA, 46, 92 MG/KG/D, TWA", "result": "inactive; negative"}]}
